Data: the NIST ThermoML archive (doi:10.1021/je700751a)
Numbers after ± are expanded uncertainties.

Test: mn = molality of the nth substance listed, in mol/kg
Conditions: 101 kPa, Liquid; for viscosity: Capillary tube (Ostwald / Ubbelohde) method

O=C([O-])[C@H](O)[C@@H](O)C(=O)[O-].[K+].[K+] [dipotassium L-tartrate] + O
Conditions	mass density [kg/m3]	viscosity [mPa·s]
308.15 K, m1 = 0.0398	999.78 ± 0.13	–
308.15 K, m1 = 0.0498	1001.18 ± 0.13	–
308.15 K, m1 = 0.0615	1002.85 ± 0.13	–
308.15 K, m1 = 0.0697	1004.01 ± 0.13	–
308.15 K, m1 = 0.0797	1005.39 ± 0.14	–
308.15 K, m1 = 0.0897	1006.8 ± 0.14	–
308.15 K, m1 = 0.0996	1008.21 ± 0.14	–
308.15 K, m1 = 0.3	1035.42 ± 0.18	–
308.15 K, m1 = 0.4985	1060.93 ± 0.22	–
308.15 K, m1 = 0.6883	–	0.916 ± 0.011
308.15 K, m1 = 0.6922	1084.65 ± 0.26	–
308.15 K, m1 = 0.8934	1108 ± 0.3	–
308.15 K, m1 = 1.098	–	1.054 ± 0.012
308.15 K, m1 = 1.284	1150.41 ± 0.37	–
308.15 K, m1 = 1.468	–	1.206 ± 0.014
308.15 K, m1 = 1.579	1180.16 ± 0.42	–
308.15 K, m1 = 1.878	–	1.389 ± 0.016
308.15 K, m1 = 1.965	1216.05 ± 0.48	–
308.15 K, m1 = 2.443	1257.21 ± 0.55	–
308.15 K, m1 = 2.602	–	1.801 ± 0.021
308.15 K, m1 = 2.923	1294.09 ± 0.61	–
308.15 K, m1 = 3.391	1326.15 ± 0.66	–
308.15 K, m1 = 3.405	–	2.613 ± 0.03
308.15 K, m1 = 3.858	1356.74 ± 0.71	–
308.15 K, m1 = 4.077	–	3.367 ± 0.038
308.15 K, m1 = 4.324	1384.06 ± 0.76	–
308.15 K, m1 = 4.785	1408.83 ± 0.8	–
308.15 K, m1 = 5.188	–	4.841 ± 0.055
308.15 K, m1 = 5.238	1431.81 ± 0.84	–
308.15 K, m1 = 5.378	–	5.339 ± 0.062
308.15 K, m1 = 5.692	1453.12 ± 0.88	–
318.15 K, m1 = 0.0222	–	0.595 ± 0.007
318.15 K, m1 = 0.0312	–	0.601 ± 0.007
318.15 K, m1 = 0.0398	995.909 ± 0.13	–
318.15 K, m1 = 0.0498	997.282 ± 0.13	–
318.15 K, m1 = 0.0516	–	0.609 ± 0.007
318.15 K, m1 = 0.0615	998.942 ± 0.13	–
318.15 K, m1 = 0.0697	1000.09 ± 0.13	–
318.15 K, m1 = 0.073	–	0.612 ± 0.007
318.15 K, m1 = 0.0797	1001.44 ± 0.13	–
318.15 K, m1 = 0.0897	1002.86 ± 0.13	–
318.15 K, m1 = 0.0909	–	0.623 ± 0.007
318.15 K, m1 = 0.0996	1004.24 ± 0.13	–
318.15 K, m1 = 0.1822	–	0.639 ± 0.007
318.15 K, m1 = 0.2842	–	0.665 ± 0.008
318.15 K, m1 = 0.3	1031.19 ± 0.18	–
318.15 K, m1 = 0.3843	–	0.693 ± 0.008
318.15 K, m1 = 0.4639	–	0.705 ± 0.008
318.15 K, m1 = 0.4985	1056.45 ± 0.22	–
318.15 K, m1 = 0.6883	–	0.764 ± 0.009
318.15 K, m1 = 0.6922	1079.98 ± 0.25	–
318.15 K, m1 = 0.8934	1103.17 ± 0.29	–
318.15 K, m1 = 1.098	–	0.879 ± 0.01
318.15 K, m1 = 1.284	1145.3 ± 0.36	–
318.15 K, m1 = 1.468	–	1.006 ± 0.012
318.15 K, m1 = 1.579	1174.96 ± 0.41	–
318.15 K, m1 = 1.878	–	1.157 ± 0.013
318.15 K, m1 = 1.965	1210.59 ± 0.47	–
318.15 K, m1 = 2.443	1251.59 ± 0.54	–
318.15 K, m1 = 2.602	–	1.483 ± 0.017
318.15 K, m1 = 2.923	1288.34 ± 0.6	–
318.15 K, m1 = 3.391	1320.32 ± 0.65	–
318.15 K, m1 = 3.405	–	2.12 ± 0.024
318.15 K, m1 = 3.858	1350.83 ± 0.7	–
318.15 K, m1 = 4.077	–	2.7 ± 0.031
318.15 K, m1 = 4.324	1378.1 ± 0.75	–
318.15 K, m1 = 4.785	1402.83 ± 0.79	–
318.15 K, m1 = 5.188	–	3.829 ± 0.044
318.15 K, m1 = 5.238	1425.78 ± 0.83	–
318.15 K, m1 = 5.378	–	4.176 ± 0.048
318.15 K, m1 = 5.692	1447.06 ± 0.87	–
